Values after ≈ are worked out from the molar mass of the structure shown. Active and inactive are the calls of the source. No cut-off for these calls is given here.
Key:
Type in all cases: functional, organism-based
Leishmania donovani [1] = test: Antileishmanial activity against axenic amastigote stage of Leishmania donovani assessed as growth inhibition after 72 hrs by Alamar Blue assay
Trypanosoma brucei = test: Antitrypanosomal activity against trypamastigote stage of Trypanosoma brucei assessed as growth inhibition after 72 hrs by Alamar Blue assay
Leishmania donovani [2] = test: Antileishmanial activity against promastigote stage of Leishmania donovani assessed as growth inhibition at 0.0128 to 40 ug/ml after 72 hrs by Alamar Blue assay

Row | SMILES | IC50 (Trypanosoma brucei) | IC90 (Trypanosoma brucei) | IC50 (Leishmania donovani [1]) | IC90 (Leishmania donovani [1]) | inhibition (Leishmania donovani [2])
1 | C[C@@H]1[C@H](O)[C@@H](C)/C=C/C=C/C=C/C=C/C=C/C=C/C=C/[C@H](O[C@@H]2O[C@H](C)[C@@H](O)[C@H](N)[C@@H]2O)C[C@@H]2O[C@](O)(C[C@@H](O)C[C@@H](O)[C@H](O)CC[C@@H](O)C[C@@H](O)CC(=O)O[C@H]1C)C[C@H](O)[C@H]2C(=O)O [AMPHOTERICIN B] | 4.52 µg/mL (≈ 4.89 µM) | 10.1 µg/mL (≈ 10.9 µM) | 0.195 µg/mL (≈ 0.211 µM) | 0.301 µg/mL (≈ 0.326 µM) | –
2 | C[C@@]12CCC[C@](C)(C(=O)NCC3CCCCC3)[C@H]1CCC(O)(CO)[C@H]2CCc1ccoc1 (some centres not stated) | 6.51 µg/mL (≈ 14.6 µM) | 9.15 µg/mL (≈ 20.5 µM) | > 10 µg/mL | > 10 µg/mL | inactive
3 | C=C1CC[C@H]2[C@@](C)(CCC[C@]2(C)C(=O)NCCOC)[C@@H]1CCc1ccoc1 | 2.58 µg/mL (≈ 6.91 µM) | 4.71 µg/mL (≈ 12.6 µM) | 6.73 µg/mL (≈ 18 µM) | > 10 µg/mL | inactive
4 | N=C(N)c1ccc(OCCCCCOc2ccc(C(=N)N)cc2)cc1 [PENTAMIDINE] | 0.002 µg/mL (≈ 0.00587 µM) | 0.003 µg/mL (≈ 0.00881 µM) | 1.89 µg/mL (≈ 5.54 µM) | 5.81 µg/mL (≈ 17.1 µM) | –
5 | COCCNC(=O)[C@@]1(C)CCC[C@@]2(C)[C@H](CCc3ccoc3)C(O)(CO)CC[C@@H]21 (some centres not stated) | 7.68 µg/mL (≈ 18.8 µM) | > 10 µg/mL | > 10 µg/mL | > 10 µg/mL | inactive
6 | C=C1CC[C@H]2[C@@](C)(CCC[C@]2(C)C(=O)N2CCN(C)CC2)[C@@H]1CCc1ccoc1 | 6.85 µg/mL (≈ 17.2 µM) | > 10 µg/mL | > 10 µg/mL | > 10 µg/mL | inactive
7 | C=C1CC[C@H]2[C@@](C)(CCC[C@]2(C)C(=O)NCCOCCO)[C@@H]1CCc1ccoc1 | > 10 µg/mL | > 10 µg/mL | > 10 µg/mL | > 10 µg/mL | inactive
8 | C[C@@]12CCC[C@](C)(C(=O)N3CCOCC3)[C@H]1CCC(O)(CO)[C@H]2CCc1ccoc1 (some centres not stated) | 6.25 µg/mL (≈ 14.9 µM) | > 10 µg/mL | > 10 µg/mL | > 10 µg/mL | inactive
9 | C=C1CC[C@H]2[C@@](C)(CCC[C@]2(C)C(=O)NCCN(C)C)[C@@H]1CCc1ccoc1 | > 10 µg/mL | > 10 µg/mL | > 10 µg/mL | > 10 µg/mL | inactive
10 | C=C1CC[C@H]2[C@@](C)(CCC[C@]2(C)C(=O)N(CC)CC)[C@@H]1CCc1ccoc1 | 5 µg/mL (≈ 13.5 µM) | 8.82 µg/mL (≈ 23.7 µM) | 5.12 µg/mL (≈ 13.8 µM) | 8.75 µg/mL (≈ 23.5 µM) | inactive
11 | C=C1CC[C@H]2[C@@](C)(CCC[C@]2(C)C(=O)N2CCOCC2)[C@@H]1CCc1ccoc1 | 4.62 µg/mL (≈ 12 µM) | 8.3 µg/mL (≈ 21.5 µM) | 9.9 µg/mL (≈ 25.7 µM) | > 10 µg/mL | inactive

Continued, in another order:

Row | IC50 (Trypanosoma brucei) | IC90 (Trypanosoma brucei) | SMILES | IC50 (Leishmania donovani [1]) | IC90 (Leishmania donovani [1]) | inhibition (Leishmania donovani [2])
12 | 5.75 µg/mL (≈ 14 µM) | 8.52 µg/mL (≈ 20.7 µM) | C=C1CC[C@H]2[C@@](C)(CCC[C@]2(C)C(=O)NCC2CCCCC2)[C@@H]1CCc1ccoc1 | 3.84 µg/mL (≈ 9.33 µM) | 7.75 µg/mL (≈ 18.8 µM) | inactive
13 | 6.14 µg/mL (≈ 16.5 µM) | 9.13 µg/mL (≈ 24.6 µM) | C=C1CC[C@H]2[C@@](C)(CCC[C@]2(C)C(=O)NCCCC)[C@@H]1CCc1ccoc1 | 5.93 µg/mL (≈ 16 µM) | 9.02 µg/mL (≈ 24.3 µM) | inactive
14 | 3.87 µg/mL (≈ 12.2 µM) | 8.12 µg/mL (≈ 25.7 µM) | C=C1CC[C@H]2[C@@](C)(CCC[C@]2(C)C(=O)O)[C@@H]1CCc1ccoc1 | 8.68 µg/mL (≈ 27.4 µM) | > 10 µg/mL | –
15 | 9.88 µg/mL (≈ 24.7 µM) | > 10 µg/mL | C=C1CC[C@H]2[C@@](C)(CCC[C@]2(C)C(=O)NC2CCOCC2)[C@@H]1CCc1ccoc1 | > 10 µg/mL | > 10 µg/mL | inactive
16 | 2.74 µg/mL (≈ 7.66 µM) | 4.9 µg/mL (≈ 13.7 µM) | C=C1CC[C@H]2[C@@](C)(CCC[C@]2(C)C(=O)NC(C)C)[C@@H]1CCc1ccoc1 | 7.04 µg/mL (≈ 19.7 µM) | > 10 µg/mL | inactive
17 | 5.62 µg/mL (≈ 15.8 µM) | 8.96 µg/mL (≈ 25.2 µM) | C=C1CC[C@H]2[C@@](C)(CCC[C@]2(C)C(=O)NC2CC2)[C@@H]1CCc1ccoc1 | 8.21 µg/mL (≈ 23.1 µM) | > 10 µg/mL | inactive
18 | 3.58 µg/mL (≈ 9 µM) | 8.1 µg/mL (≈ 20.4 µM) | C=C1CC[C@H]2[C@@](C)(CCC[C@]2(C)C(=O)NC2CCCCC2)[C@@H]1CCc1ccoc1 | 4.23 µg/mL (≈ 10.6 µM) | 8.19 µg/mL (≈ 20.6 µM) | inactive

From ChEMBL document CHEMBL3632568, “Synthesis and biological evaluation of polyalthic acid derivatives for the treatment of neglected diseases” (Bioorg Med Chem Lett, 2015)
